This note sets out measurements from patent US9718821B2, “Pyridopyrimidinone inhibitors of kinases” (AbbVie Inc., priority 2012, dated 2017).

In the experiment the target is T1, GST-tagged-Wee1 kinase (Homo sapiens, UniProt P30291).
T1 construct: purchased Carnabio 05-177
The experiment can be described thus: Wee1 time-resolved fluorescence equilibrium binding assay (displacement of Oregon Green-labeled ATP-competitive kinase probe). To be noted: enzyme binding data; GST-tagged-Wee1 kinase 2 nM, fluorescent probe 300 nM, inhibitor 0.003 to 10 micromolar, 1 hour incubation; read-out: Wee-1 binding (Ki nM). The essentials: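 Competitive TR-fluorescence equilibrium binding with GST-Wee1; inhibitors displace a rapidly reversible Oregon Green-labelled ATP-competitive probe. Ki values derived from probe displacement.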

The Ki is the dissociation constant of the complex between target and ligand, obtained from inhibition or displacement.

T1 sequence (P30291 whole entry): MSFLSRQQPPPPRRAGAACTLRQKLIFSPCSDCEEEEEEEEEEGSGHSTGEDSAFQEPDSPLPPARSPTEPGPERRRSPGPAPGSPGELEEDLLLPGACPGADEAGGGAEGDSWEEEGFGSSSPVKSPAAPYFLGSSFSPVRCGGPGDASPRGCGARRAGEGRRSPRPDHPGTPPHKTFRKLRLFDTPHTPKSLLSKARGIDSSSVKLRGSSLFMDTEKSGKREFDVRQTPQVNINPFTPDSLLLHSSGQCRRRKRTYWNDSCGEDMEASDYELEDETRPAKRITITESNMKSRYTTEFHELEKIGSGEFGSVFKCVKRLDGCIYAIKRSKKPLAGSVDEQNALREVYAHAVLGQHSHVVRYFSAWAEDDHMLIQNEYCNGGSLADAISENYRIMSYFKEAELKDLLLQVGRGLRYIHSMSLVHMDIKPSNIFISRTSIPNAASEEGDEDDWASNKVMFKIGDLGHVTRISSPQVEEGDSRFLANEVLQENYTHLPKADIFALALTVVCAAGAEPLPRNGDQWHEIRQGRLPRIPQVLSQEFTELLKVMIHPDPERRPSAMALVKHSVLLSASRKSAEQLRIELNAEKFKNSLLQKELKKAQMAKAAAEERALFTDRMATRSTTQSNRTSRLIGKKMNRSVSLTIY

As for `COC(=O)c1cc(Nc2ncc3c(=O)n(-c4c(Cl)cccc4Cl)cc(C)c3n2)ccc1N1CCN(C)CC1` [Example 129, methyl 5-{[6-(2,6-dichlorophenyl)-8-methyl-5-oxo-5,6-dihydropyrido[4,3-d]pyrimidin-2-yl]amino}-2-(4-methylpiperazin-1-yl)benzoate], the Ki was found to be 0.2 nM.
In the case of `Cc1cn(-c2c(Cl)cccc2Cl)c(=O)c2cnc(Nc3ccc(NCCN(C)C)cc3)nc12` [Example 130, 6-(2,6-dichlorophenyl)-2-[(4-{[2-(dimethylamino)ethyl]amino}phenyl)amino]-8-methylpyrido[4,3-d]pyrimidin-5(6H)-one], the Ki stood at 0.3 nM.
Under `Cc1cn(-c2c(Cl)cccc2Cl)c(=O)c2cnc(Nc3ccc(N4CCN(CCCN(C)C)CC4)cc3)nc12` [Example 131, 6-(2,6-dichlorophenyl)-2-[(4-{4-[3-(dimethylamino)propyl]piperazin-1-yl}phenyl)amino]-8-methylpyrido[4,3-d]pyrimidin-5(6H)-one] stands 0.2 nM; under `Cc1cn(-c2c(Cl)cccc2Cl)c(=O)c2cnc(Nc3ccc(N[C@H]4CC[C@H](N(C)C)CC4)cc3)nc12` [Example 132, 6-(2,6-dichlorophenyl)-2-[(4-{[trans-4-(dimethylamino)cyclohexyl]amino}phenyl)amino]-8-methylpyrido[4,3-d]pyrimidin-5(6H)-one], 0.4 nM.
Regarding `Cc1cn(-c2c(Cl)cccc2Cl)c(=O)c2cnc(Nc3ccc(N[C@H]4CC[C@@H](N(C)C)CC4)cc3)nc12` [Example 133, 6-(2,6-dichlorophenyl)-2-[(4-{[cis-4-(dimethylamino)cyclohexyl]amino}phenyl)amino]-8-methylpyrido[4,3-d]pyrimidin-5(6H)-one], the Ki was determined as 0.5 nM.
In the case of `Cc1cn(-c2c(Cl)cccc2Cl)c(=O)c2nnc(Nc3ccc4c(c3)CNCC4)nc12` [Example 134, 7-(2,6-dichlorophenyl)-5-methyl-3-(1,2,3,4-tetrahydroisoquinolin-7-ylamino)pyrido[4,3-e][1,2,4]triazin-8(7H)-one], the Ki worked out at 6.5 nM.
As to `Cc1cn(-c2c(Cl)cccc2Cl)c(=O)c2nnc(Nc3ccc4c(c3)CN(C)CC43CC3)nc12` [Example 135, 7-(2,6-dichlorophenyl)-5-methyl-3-[(2′-methyl-2′,3′-dihydro-1′H-spiro[cyclopropane-1,4′-isoquinolin]-7′-yl)amino]pyrido[4,3-e][1,2,4]triazin-8(7H)-one], the Ki was found to be 5.7 nM.
As to `Cc1cn(-c2c(O)cccc2Cl)c(=O)c2cnc(Nc3ccc4c(c3)CNC4(C)C)nc12` [Example 136, 6-(2-chloro-6-hydroxyphenyl)-2-[(1,1-dimethyl-2,3-dihydro-1H-isoindol-5-yl)amino]-8-methylpyrido[4,3-d]pyrimidin-5(6H)-one], the Ki was 0.2 nM.
The value for `Cc1cn(-c2c(Cl)cccc2Cl)c(=O)c2cnc(Nc3ccc4c(c3)CN(C3CCN(C)CC3)C4)nc12` [Example 137, 6-(2,6-dichlorophenyl)-8-methyl-2-{[2-(1-methylpiperidin-4-yl)-2,3-dihydro-1H-isoindol-5-yl]amino}pyrido[4,3-d]pyrimidin-5(6H)-one] was 0.4 nM.
Under `Cc1cn(-c2c(Cl)cccc2Cl)c(=O)c2cnc(Nc3ccc(N4CCN(CCN(C)C)CC4)cc3)nc12` [Example 138, 6-(2,6-dichlorophenyl)-2-[(4-{4-[2-(dimethylamino)ethyl]piperazin-1-yl}phenyl)amino]-8-methylpyrido[4,3-d]pyrimidin-5(6H)-one] stands 0.2 nM; under `Cc1cccc(C)c1-n1cc(C)c2nc(Nc3ccc(N4CCN(CCCN(C)C)CC4)cc3)ncc2c1=O` [Example 139, 2-[(4-{4-[3-(dimethylamino)propyl]piperazin-1-yl}phenyl)amino]-6-(2,6-dimethylphenyl)-8-methylpyrido[4,3-d]pyrimidin-5(6H)-one], 2.1 nM; under `CN(C)CCCN1CCN(c2ccc(Nc3ncc4c(=O)n(-c5c(Cl)cccc5Cl)cc(CF)c4n3)cc2)CC1` [Example 140, 6-(2,6-dichlorophenyl)-2-[(4-{4-[3-(dimethylamino)propyl]piperazin-1-yl}phenyl)amino]-8-(fluoromethyl)pyrido[4,3-d]pyrimidin-5(6H)-one], 0.2 nM.
Take `Cc1cn(-c2c(Cl)cccc2Cl)c(=O)c2cnc(Nc3ccc4c(c3)CN(CCN(C)C)C4)nc12` [Example 141, 6-(2,6-dichlorophenyl)-2-({2-[2-(dimethylamino)ethyl]-2,3-dihydro-1H-isoindol-5-yl}amino)-8-methylpyrido[4,3-d]pyrimidin-5(6H)-one]: the Ki is 1 nM.
